Entries after “also recorded” stand apart in the source; their conditions may differ.

Assay [1] has as its system collagenase expression. The experiment in a line: Effect of other anti-microtubules on IL-1 induced collagenase expression in primary chondrocytes. In kind it is cell-based, calf. The conditions noted are these: pre-incubation 6 hours, IL-1 20 ng/ml 18 hours; FIGS. 5A-H. As for the experimental part: Primary chondrocyte cultures were freshly isolated from calf cartilage. The cells were plated at 2.5×10^6 per ml in 100×20 mm culture dishes and incubated in Ham's F12 medium containing 5% FBS overnight at 37° C. The cells were starved in serum-free medium overnight and then treated with anti-microtubule agents at various concentrations for 6 hours. IL-1 (20 ng/ml) was then added to each plate and the plates incubated for an additional 18 hours. Total RNA was isolated by the acidified guanidine isothiocyanate method and subjected to electrophoresis on a denatured gel. Denatured RNA samples (15 μg) were analyzed by gel electrophoresis in a 1% denatured gel, transferred to a nylon membrane and hybridized with the ^32P-labeled collagenase cDNA probe. ^32P-labeled glyceraldehyde phosphate […] (GAPDH) cDNA as an internal standard to ensure roughly equal loading. The exposed films were scanned and quantitatively analyzed with IMAGEQUANT.

In assay [2] the test system is Chick Chorioallantoic Membrane (CAM). The experiment in a line: Chick chorioallantoic membrane (CAM) angiogenesis assay.
Assay [3] relates to MMP-1 mRNA (collagenase). The experiment in a line: IL-1 induced MMP-1 (collagenase) mRNA expression in chondrocytes, Northern blot. The conditions noted are these: pretreatment 24 hours.
In assay [4] the test system is AP-1 DNA binding activity. The experiment in a line: IL-1 induced AP-1 DNA binding activity, gel mobility shift with chondrocyte extracts. The format is cell-based. The conditions noted are these: chondrocytes pretreated with 10^−7 to 10^−5 M for 24 hours, IL-1β 20 ng/ml; FIG. 4C. As for the experimental part: Binding activity was assayed with a radiolabeled human AP-1 sequence probe and gel mobility shift assay. Extracts from chondrocytes untreated or treated with various amounts of paclitaxel (10^−7 to 10^−5 M) followed by IL-1β (20 ng/ml) were incubated with excess probe on ice for 30 minutes, followed by non-denaturing gel electrophoresis. The “com” lane contains excess unlabeled AP-1 oligonucleotide. The results shown are representative of three independent experiments.

The test system of assay [5] is human fibroblasts. The experiment in a line: Screening assay, cell proliferation of fibroblasts (CYQUANT). The conditions noted are these: Fibroblast, 72 hours, average of n=4 experiments, FIG. 8. The format is cell-based.
Protocol: Fibroblasts at 70-90% confluency were trypsinized, replated at 600 cells/well in media in 96-well plates and allowed to attach overnight. Paclitaxel was prepared in DMSO at a concentration of 10^−2 M and diluted 10-fold to give a range of stock concentrations (10^−8 M to 10^−2 M). […] Each drug concentration was tested in triplicate wells.
To terminate the assay, the media was removed by gentle aspiration. A 1/400 dilution of CYQUANT 400X GR dye indicator (Molecular Probes; Eugene, Oreg.) was added to 1X Cell Lysis buffer, and 200 μL of the mixture was added to the wells of the plate. Plates were incubated at room temperature, protected from light for 3-5 minutes.
Assay [6] deals with MMP-3 mRNA (stromelysin). The experiment in a line: IL-1 induced MMP-3 (stromelysin) mRNA expression in chondrocytes, Northern blot. The conditions noted are these: pretreatment 24 hours.

Turning to `O=C(CCC(=O)ON1C(=O)CCC1=O)OCCOC(=O)CCC(=O)ON1C(=O)CCC1=O` [ethylene glycol bis-(succinimidylsuccinate)], the “concentration (as low as) preventing IL-1-induced collagenase expression” value (from here on “concentration”) in assay [1] was found to be 100 nM.

Take `CC(O)CC(C)(C)O` (centres unmarked) [hexylene glycol]: the “concentration” value in assay [1] amounted to 100 nM.

`CC(=O)O[C@H]1C(=O)[C@@]2(C)[C@H]([C@H](OC(=O)c3ccccc3)[C@]3(O)C[C@H](OC(=O)[C@H](O)[C@@H](NC(=O)c4ccccc4)c4ccccc4)C(C)=C1C3(C)C)[C@]1(OC(C)=O)CO[C@@H]1C[C@@H]2O` [paclitaxel]: the “angiogenesis in the CAM” value in assay [2] (48 hours after application) is “angiogenesis was inhibited”. In addition, in assay [2] (within 48 hours, depending on concentration), the “maximal avascular zone, avascular gradient scale” value stood at 3. Also, the “collagenase mRNA inhibition at 10^−5 M” value in assay [3] (10^−5 M paclitaxel) is “complete inhibition”. In addition, the “collagenase mRNA levels” value in assay [3] (then IL-1β, FIG. 4D) is “inhibited by pretreatment with paclitaxel; also recorded: significantly reduced”. In addition, the “IL-1 induced AP-1 binding activity” value in assay [4] was “IL-1 induced binding activity decreased”. Further, the midpoint of inhibition in assay [5], the IC50, lay at 23 nM. The “stromelysin mRNA inhibition at 10^−5 M” value in assay [6] (10^−5 M paclitaxel) is “complete inhibition”. For the same compound, in assay [6] (then IL-1β, FIG. 4D), the “stromelysin mRNA levels” value is given as “inhibited by pretreatment with paclitaxel; also recorded: significantly reduced”.

With `Nc1ncnc2c1ccn2[C@@H]1O[C@H](CO)[C@@H](O)[C@H]1O` [tubercidin], in assay [1], the “concentration” value came out at 100 nM.

For the origin of these results see patent USH2260H1, “Stents combined with paclitaxel derivatives” (Angiotech International AG, priority 2005, dated 2011).
